Measured values as given in patent publication US3974153A, “7-Hydrocarbonoxy imino-acetamido-3-carbamoyloxy methylceph-3-em-4 carboxylic acids” (Glaxo Laboratories Limited, priority 1971, dated 1976).
Structures can show the parent of a compound that is named as a salt.

What was measured:
[1] = exposure of crystalline forms to water vapour; assay type: physicochemical; details: for water content after exposure to moisture (Karl-Fischer): 75% relative humidity, 3 days, product is Form IV
Experimental: The resulting material contains about 4% water (i.e. about 1 mole) and is believed to be a hydrate. This change is reversible, so that Form IV salt may be converted to Form I salt by, for example, drying in vacuo over a desiccating agent such as phosphorus pentoxide.
If crystalline Form III material is treated in this way, the crystal habit of the product appears to be retained throughout the sequence of transformations. Form III salt may also be converted to Form I salt by heating a suspension of Form III material in nearly boiling methanol; this transformation […] in loss of crystallinity where crystalline Form III material is used.
Sample of Form I and Form III sodium 3-carbamoyloxymethyl-7-[2-(fur-2-yl)-2-methoxyiminoacetamido]ceph-3-em-4-carboxylate (syn isomer), prepared according to Method (iii) of Example 7 and Example 9 respectively, were exposed to moisture (75% relative humidity) for 3 days to give the title compound. The IR and NMR spectra of the products conformed to those of an authentic sample. Karl-Fischer water analysis gave, respectively, 4.0 and 3.85% (1 mole H2 O is equivalent to 3.9%).

Escherichia coli = assay: antibacterial activity; assay type: cell-based; details: in vitro and in vivo tests
Streptococcus vilidans = assay: antibacterial activity; assay type: cell-based; details: in vitro and in vivo tests
Proteus species = assay: antibacterial activity; assay type: cell-based; details: in vitro and in vivo tests
Neisseria meningitidis = assay: in vitro antibacterial activity; assay type: cell-based
β-lactamases = assay: stability to β-lactamases produced by gram-negative organisms; assay type: cell-based; details: evidenced by in vitro activity against β-lactamase-producing strains of Escherichia, Enterobacter and Klebsiella species
[2] = stability in the body and urinary recovery, humans; assay type: in vivo, human
Clostridia species = assay: antibacterial activity; assay type: cell-based; details: in vitro and in vivo tests
Neisseria gonorrhoeae = assay: in vitro antibacterial activity; assay type: cell-based
Haemophilus influenzae = assay: antibacterial activity; assay type: cell-based
Neisseria species = assay: antibacterial activity; assay type: cell-based; details: in vitro and in vivo tests
Staphylococcus aureus = assay: antibacterial activity; assay type: cell-based; details: in vitro and in vivo tests
mammalian esterases = assay: resistance to esterases; assay type: in vitro ADME
[3] = stability in the body and urinary recovery, animals; assay type: in vivo
[4] = serum levels following parenteral administration, animals; assay type: in vivo; details: animal subjects
Enterobacter species = assay: antibacterial activity; assay type: cell-based; details: in vitro and in vivo tests
serum binding = assay type: in vitro ADME
Streptococcus pyogenes = assay: antibacterial activity; assay type: cell-based; details: in vitro and in vivo tests
Staphylococci = assay: antibacterial activity; assay type: cell-based; details: in vitro and in vivo tests
Klebsiella species = assay: antibacterial activity; assay type: cell-based; details: in vitro and in vivo tests
Diplococcus pneumoniae = assay: antibacterial activity; assay type: cell-based; details: in vitro and in vivo tests
[5] = serum levels following parenteral administration, humans; assay type: in vivo; details: human subjects
[6] = system: gram-positive and gram-negative microorganisms; assay: antibacterial activity against gram-positive and gram-negative microorganisms; assay type: cell-based
[7] = distribution in the body on administration by injection; assay type: in vivo
solubility of base salts = assay type: physicochemical; details: e.g. alkali metal salts

CO/N=C(\C(=O)N[C@@H]1C(=O)N2C(C(=O)O)=C(COC(N)=O)CS[C@H]12)c1ccco1 [Form II, Form II Sodium (6R,7R)-3-Carbamoyloxymethyl-7-[2-(fur-2-yl)-2-methoxyiminoacetamido]ceph-3-em-4-carboxylate (syn isomer)]
water absorption on exposure to water vapour (hygroscopicity) ([1]; e.g. 75% relative humidity): does not absorb further water

CO/N=C(\C(=O)N[C@@H]1C(=O)N2C(C(=O)O)=C(COC(N)=O)CS[C@H]12)c1ccco1 [compound (II), (6R,7R)-3-carbamoyloxymethyl-7-[2-(fur-2-yl)-2-methoxyiminoacetamido]ceph-3-em-4-carboxylic acid (syn isomer)]
activity against Escherichia coli (Escherichia coli): active | activity against Streptococcus vilidans (Streptococcus vilidans): active | activity against Proteus species (Proteus species): active | in vitro activity against strains of Neisseria meningitidis (Neisseria meningitidis): particularly high in vitro activity | stability to β-lactamases produced by a range of gram-negative organisms (β-lactamases): very high stability | recovery of unchanged compound in the urine [2]: high levels | stability in the body [2]: stable | activity against Clostridia species (Clostridia species): active | in vitro activity against strains of Neisseria gonorrhoeae (Neisseria gonorrhoeae): particularly high in vitro activity | in vitro activity against strains of Haemophilus influenzae (Haemophilus influenzae; in vitro): particularly high in vitro activity | activity against Haemophilus influenzae (Haemophilus influenzae; in vitro and in vivo tests): active | activity against Neisseria species (Neisseria species): active | activity against Staphylococcus aureus (Staphylococcus aureus): active | resistance to the action of mammalian esterases (mammalian esterases): resistant | recovery of unchanged compound in the urine [3]: high levels | stability in the body [3]: stable | serum levels [4]: high serum levels | activity against Enterobacter species (Enterobacter species): active | serum binding (serum binding): low serum binding | activity against Streptococcus pyogenes (Streptococcus pyogenes): active | activity against Staphylococci (Staphylococci): active | activity against Klebsiella species (Klebsiella species): active | activity against Diplococcus pneumoniae (Diplococcus pneumoniae): active | serum levels [5]: high serum levels | activity against gram-positive and gram-negative microorganisms ([6]; in vitro and in vivo tests): active | in vitro activity at high inoculum levels ([6]; inoculum levels as high as 10^7 organisms/ml): good in vitro activity

CO/N=C(\C(=O)N[C@@H]1C(=O)N2C(C(=O)O)=C(COC(N)=O)CS[C@H]12)c1ccco1 [Form III, Form III Sodium (6R,7R)-3-Carbamoyloxymethyl-7-[2-(fur-2-yl)-2-methoxyiminoacetamido]ceph-3-em-4-carboxylate (syn isomer)]
water content after exposure to moisture (Karl-Fischer) [1]: 3.85% | change of form on exposure to water vapour ([1]; e.g. 75% relative humidity): loses all the dioxan present and forms Form IV material | water absorption on exposure to water vapour (hygroscopicity) ([1]; e.g. 75% relative humidity): hygroscopic

CO/N=C(\C(=O)N[C@@H]1C(=O)N2C(C(=O)O)=C(COC(N)=O)CS[C@H]12)c1ccco1 [sodium salt, sodium (6R,7R)-3-carbamoyloxymethyl-7-[2-(fur-2-yl)-2-methoxyiminoacetamido]ceph-3-em-4-carboxylate (syn isomer)]
distribution in the body [7]: rapid distribution | solubility (solubility of base salts): highly soluble

CO/N=C(\C(=O)N[C@@H]1C(=O)N2C(C(=O)O)=C(COC(N)=O)CS[C@H]12)c1ccco1 [Form I, Form I Sodium (6R,7R)-3-Carbamoyloxymethyl-7-[2-(fur-2-yl)-2-methoxyiminoacetamido]ceph-3-em-4-carboylate (syn isomer)]
water content after exposure to moisture (Karl-Fischer) [1]: 4.0% | change of form on exposure to water vapour ([1]; e.g. 75% relative humidity): undergo a change of crystalline form leading generally to Form IV salt | water absorption on exposure to water vapour (hygroscopicity) ([1]; e.g. 75% relative humidity): absorb further water | water content of material resulting from exposure to water vapour ([1]; e.g. 75% relative humidity, material generally Form IV): about 4%
